Where “and” joins values, the source holds several entries; their conditions need not be identical. Identical values can stand only once.
Test: mn = molality of the nth substance listed, in mol/kg
Settings: 298.15 K, 101 kPa, Liquid

NC=O [formamide] + O
Settings	mass density
m1 = 0.4985	1000.74 kg/m3
m1 = 0.5096	1000.84 kg/m3
m1 = 0.5191	1000.9 kg/m3
m1 = 0.9969	1004.03 kg/m3
m1 = 1.081	1004.59 kg/m3
m1 = 1.085	1004.61 kg/m3
m1 = 1.499	1007.18 kg/m3 and 1007.2 kg/m3
m1 = 1.5	1007.19 kg/m3
m1 = 1.999	1010.19 kg/m3 and 1010.16 kg/m3
m1 = 2.007	1010.21 kg/m3
m1 = 2.48	1012.92 kg/m3
m1 = 2.488	1012.96 kg/m3
m1 = 2.502	1013.04 kg/m3
m1 = 2.994	1015.72 kg/m3
m1 = 3	1015.76 kg/m3
m1 = 3.002	1015.76 kg/m3
m1 = 3.476	1018.24 kg/m3
m1 = 3.502	1018.39 kg/m3
m1 = 3.535	1018.55 kg/m3
m1 = 3.999	1020.84 kg/m3
m1 = 4.044	1021.08 kg/m3
m1 = 4.137	1021.53 kg/m3
m1 = 4.49	1023.21 kg/m3
m1 = 4.502	1023.26 kg/m3
m1 = 4.505	1023.29 kg/m3
m1 = 5.002	1025.56 kg/m3
m1 = 5.012	1025.61 kg/m3
m1 = 5.067	1025.86 kg/m3
m1 = 5.49	1027.73 kg/m3
m1 = 5.547	1027.97 kg/m3
m1 = 5.575	1028.1 kg/m3
m1 = 5.973	1029.8 kg/m3
m1 = 6.008	1029.91 kg/m3
m1 = 6.01	1029.95 kg/m3
m1 = 6.497	1031.91 kg/m3
m1 = 6.503	1031.93 kg/m3
m1 = 6.51	1031.98 kg/m3
m1 = 6.99	1033.87 kg/m3
m1 = 7.004	1033.94 kg/m3
m1 = 7.056	1034.12 kg/m3
m1 = 7.468	1035.69 kg/m3
m1 = 7.481	1035.75 kg/m3
m1 = 7.493	1035.75 kg/m3
m1 = 7.99	1037.61 kg/m3
m1 = 8.002	1037.64 kg/m3
m1 = 8.037	1037.77 kg/m3
m1 = 8.468	1039.27 kg/m3
m1 = 8.506	1039.42 kg/m3
m1 = 8.522	1039.45 kg/m3
m1 = 8.947	1040.93 kg/m3
m1 = 8.99	1041.07 kg/m3
m1 = 9.032	1041.2 kg/m3

— the NIST ThermoML archive (doi:10.1021/je5003797)
